Source: patent US8945635B2, “Formulations comprising extracts from primitive plant species (mosses, ferns and lichens) to treat and prevent cancers” (priority 2006, dated 2015)
Read-outs that look alike come from different tables or passages of the source.

How the values were obtained:
[1] = test system: Glioblastoma Multiforme (GBM); settings: cited from earlier work
[2] = test system: GBM monolayer culture (ATCC crl-2020); settings: for Viability: GBM monolayer, 12 hours at 38° C., carmustine 50 μM, curcumin 20 μM, CAPE 20 μM, ABA 400 μM, extract sample 19 10 mg/mL
Text: (§1) Carmustine, berberine, curcumin, caffeic acid phenyl ester (CAPE), abscisic acid and a extract sample 19 (fern) were used, singly and in various combinations, to assess their potential effectiveness in promoting in vitro cell death responses in a malignant GBM cell line (ATCC crl-2020). Two different culture models were used in these experiments. The majority of vertebrate cells cultured in vitro grow as monolayers on an artificial substrate, as is the case with GBM cells. Live cells attach to the bottom of a tissue culture plate where they proliferate until the surface is confluent with cells. […] The three dimensional structure of solid tumors makes such tumors more resistant to treatment than a GBM cell monolayer culture. To more closely approximate in vivo conditions a multi-cellular tumor spheroid (MTS) model was used. In this model GBM cells were cultured on a 1% agarose matrix in a 24 well tissue culture dish to form multi cellular aggregates. […] Trypan blue staining and microscopic observation was used to assess cell viability after treatment.
A GBM monolayer culture plate was treated with moderately low concentrations of carmustine (50 μM dose); curcumin (20 μM dose); CAPE (20 μM dose); ABA (400 μM dose) and extract sample 19 (10 mg/mL dose). The treated cultures were incubated for 12 hours at 38° C. and assayed. The dosing conditions were sub-optimal dosing conditions designed to allow better assessment of the combined agent results.

[3] = test system: GBM multicellular tumor spheroid (MTS) culture (ATCC crl-2020)
Text: as §1
A GBM multicellular tumor spheroid (MTS) culture plate was treated with moderately low concentrations of carmustine (50 μM dose); curcumin (20 μM dose); CAPE (20 μM dose); ABA (400 μM dose) and extract sample 19 (10 mg/mL dose). The treated cultures were incubated for 24 hours at 38° C. and assayed. The dosing conditions were designed to represent sub-optimal dosing conditions.
A GBM multicellular tumor spheroid (MTS) culture plate was treated with different two agent and three agent combinations including curcumin and extract sample 13; carmustine and extract sample 13; carmustine and curcumin; and carmustine and curcumin and extract sample 13. The agent concentrations were the same as in the single agent testing (carmustine (50 μM dose); curcumin (20 μM dose); CAPE (20 μM dose); ABA (400 μM dose) and extract sample 13 (10 mg/mL dose).
The treated cultures were incubated for 24 hours at 38° C. and assayed. The dosing conditions were designed to represent sub-optimal dosing conditions.

[4] = test system: Metastatic colon cancer (SW620) MTS cells; test: Single agent treatment of metastatic colon cancer MTS cells; format: cell-based, human; settings: 5 days, 5-fluorouracil 2.5 μM, Gemcitabine 5 μM
Protocol: Metastatic MTS colon cancer (SW620) were treated for 24 hours with extract samples 1 (moss), 2 (moss), 4 (moss), 6 (moss), 5 (moss), 7 (fern), 8 (fern), 9 (moss), all at 50 mg/mL, and for 5 days with the standard chemotherapeutics 5-fluorouracil at 2.5 μM and Gemcitabine at 5 μM.
Metastatic colon cancer (SW620) MTS cells were treated for 24 hours with extract samples 12 (moss), 13 (fern), 14 (lichen), all at 50 mg/mL, and for 5 days with the standard chemotherapeutics 5-fluorouracil at 2.5 μM and Gemcitabine at 5 μM.

[5] = GBM monolayer cell cultures, agent used alone
[6] = GBM MTS cell cultures, agent used alone
[7] = Table 18, standard chemotherapeutics
[8] = Table 19, standard chemotherapeutics

Compound | cytotoxicity of single agent in words [2, 5] | Viability [2] [%] | cytotoxicity of single agent in words [3, 6] | % dead cells [4, 7] [%] | % live cells [4, 7] [%] | % dead cells [4, 8] [%] | % live cells [4, 8] [%] | also measured
O=NN(CCCl)C(=O)NCCCl [carmustine, 1,3-bis(2-chloroethyl)-1-nitrosourea] | only low level cytotoxicity | 100 | only low level cytotoxicity | – | – | – | – | side effects ([1]; Intravenous administration): a decrease of bone marrow blood cells, lung damage and death; mean survival rate ([1]; applied in time release fashion to the tumor site, from 11.6 months): 13.9 months
O=c1[nH]cc(F)c(=O)[nH]1 [5-fluorouracil] | – | – | – | 55 | 45 | 75 | 25 | –
COc1cc(/C=C/C(=O)CC(=O)/C=C/c2ccc(O)c(OC)c2)ccc1O [curcumin] | – | – | – | – | – | – | – | cytotoxicity of single agent in words [2]: failed to produce significant cytotoxic responses; cytotoxicity of single agent in words [3]: failed to produce significant cytotoxic responses
CC1=CC(=O)CC(C)(C)[C@@]1(O)/C=C/C(C)=C\C(=O)O [ABA, abscisic acid] | failed to produce significant cytotoxic responses | 100 | failed to produce significant cytotoxic responses | – | – | – | – | –
Nc1ccn([C@@H]2O[C@H](CO)[C@@H](O)C2(F)F)c(=O)n1 [Gemcitabine] | – | – | – | 20 | 80 | 95 | 5 | –
caffeic acid phenyl ester [CAPE] | failed to produce significant cytotoxic responses | 100 | failed to produce significant cytotoxic responses | – | – | – | – | –
